Data as given in US10493030B2 (priority 2015, dated 2019).

Columns and labels:
HIV = settings: some HIV-infected patients; cited from earlier work
[1] = Phase I clinical study in HIV-1 patients (NCT02269605); assay type: in vivo, human; settings: doses of 10 and 20 μg/m2
classical PKCs pathways = experiment: cPKC translocation and signalling pathway activation in T cells; assay type: cell-based
Source text: Low concentrations of Bryostatin-1 activate the cPKC-Ras-Raf-ERK pathway and synergize with an HDAC inhibitor, valproic acid (VPA), to activate the transcription factor SP1.

[2] = system: human HIV-1 receptors CD4 and CXCR4; settings: low concentrations; cited from earlier work
HIV-1 latency = settings: very low concentrations (1-10 nM); in vitro; cited from earlier work
[3] = system: PBMC isolated from HIV-1 patients; experiment: HIV-1 latency ex vivo in PBMC isolated from HIV-1 patients; assay type: cell-based, human
T cells = experiment: transcriptome studies in T cells; assay type: cell-based; settings: 10 and 100 nM
HIV-1 = settings: low concentrations; cited from earlier work
Jurkat-LAT-GFP = experiment: in vitro model of HIV-1 latency, Jurkat-LAT-GFP; assay type: cell-based
transcription factor SP1 = experiment: activation of transcription factor SP1, combination with valproic acid; assay type: cell-based; settings: low concentrations; with HDAC inhibitor valproic acid
[4] = concentrations higher than 10 nM

SMILES | HIV transcription from latency (HIV) | adverse events [1] | activation of NF-κB and MAPKs (JNK and ERK) pathways (classical PKCs pathways; [4]) | translocation of cPKCs (classical PKCs pathways; [4]) | translocation of cPKCs and Ras-GRP1 (classical PKCs pathways; lower concentrations (10 nM)) | expression of the human HIV-1 receptors CD4 and CXCR4 [2] | synergy with HDAC inhibitors such as valproic acid to antagonise HIV-1 latency (HIV-1 latency) | HIV-1 latency ex vivo [3] | gene expression in T cells, low vs. high concentrations (T cells) | de novo HIV-1 infection (HIV-1) | reactivation of HIV-1 latency in T cells (Jurkat-LAT-GFP; Jurkat-LAT-GFP, via classical PKCs pathways) | reactivation of HIV-1 latency (Jurkat-LAT-GFP; lower concentrations (10 nM), ERK activation and nuclear phosphorylation of p65) | synergy with valproic acid (VPA) to activate the transcription factor SP1 (transcription factor SP1)
O=C(CCCCCCC(=O)Nc1ccccc1)NO [Vorinostat] | significant and sustained increase in HIV transcription from latency | – | – | – | – | – | – | – | – | – | – | – | –
CCC/C=C/C=C/C(=O)O[C@H]1/C(=C/C(=O)OC)C[C@H]2C[C@H]([C@@H](C)O)OC(=O)C[C@H](O)C[C@@H]3C[C@H](OC(C)=O)C(C)(C)[C@](O)(C[C@@H]4C/C(=C/C(=O)OC)C[C@H](/C=C/C(C)(C)[C@]1(O)O2)O4)O3 [Bryostatin-1] | – | did not induced significant adverse events | activated the canonical NF-κB and MAPKs (JNK and ERK) pathways | induced translocation of cPKCs to the plasma membrane | translocated cPKCs and Ras-GRP1 to the endoplasmic reticulum | down-regulated | synergizes | antagonized HIV-1 latency | differentially regulate gene expression | prevent de novo HIV-1 infection | re-activates HIV-1 latency | fully reactivates HIV-1 latency | synergize
